Assay results from patent US20200370015A1, “METHOD FOR PRODUCING ERYTHROID PROGENITOR CELLS” (ETABLISSEMENT FRANCAIS DU SANG, priority 2017, published 2020).

Tests used:
Type in all cases: cell-based, human
[1] = test system: CD34+ HTERT BMI1 BCL-XL; test: Amplification of erythroid progenitors from engineered cytapheresis HSCs overexpressing HTERT, BMI1 and BCL-XL (cell count); conditions: cell count on day 65
Procedure: (§1) IMDM (Biochrom), supplemented with transferrin (330 μg/mL), insulin (10 μg/mL), 5% AB serum pool (EFS) and heparin (3 U/mL). From day 0 to day 7, the medium was supplemented with IL-3 (5 ng/mL), SCF (100 ng/mL) and EPO (2 IU/mL). From day 7 until the end of the amplification of erythroblastic progenitors, the medium was supplemented with SCF (100 ng/mL) and EPO (2 IU/mL).
(§2) HSCs are obtained from cytapheresis after magnetic separation using Miltenyi CD34+ beads.
(§3) On day 0 the cells were seeded at a concentration of 100,000 cells/mL, for two successive infections with the HTERT BMI1 lentiviral supernatant and the BCL-XL retroviral supernatant or the HTERT BMI1 lentiviral supernatant and the LMO2 lentiviral supernatant; on day 3 the cells were washed 3 times and reseeded at a concentration of 10,000 cells/mL, on day 4 the cells were diluted to 1/5 in new medium. On day 7 the cells were washed and cultured at 100,000 cells/mL in new medium. On day 11 the cells were diluted to 100,000 cells/mL and seeded in a new medium. On day 14 the cells were reseeded to 300,000 cells/mL in a new medium. On day 18 the cells were diluted to 0.5 million/mL. From day 21 onwards, the cells were systematically reset to 1 million/mL each day of maintenance (i.e., twice per week).
(§4) Protocol 1: From day 0 to day 11 the cells are cultured in the basal medium. […]

[2] = test system: CD34+ HTERT BMI1 LMO2; test: Amplification of erythroid progenitors from engineered cytapheresis HSCs overexpressing HTERT, BMI1 and LMO2 (cell count); conditions: cell count on day 65
Procedure: as §1, §2, §3, §4

[3] = test system: CD34+ from cytapheresis; test: Amplification of erythroid progenitors from CD34+ HSCs derived from cytapheresis (cell count); conditions: cell count after culture
Procedure: as §1
HSCs are obtained after magnetic separation using CD34+ beads according to the protocol provided by Milenyi (see CD34 MicroBead Kit, human, from Miltenyi Biotec).
On day 0 the cells were seeded at a concentration of 10,000 cells/mL, on day 4 the cells were diluted 1/5 in new medium, on day 7 the cells were washed and cultured at 100,000 cells/mL in new medium. On day 11 the cells were diluted to 100,000 cells/mL and seeded in a new medium. On day 14 the cells were reseeded at 300,000 cells/mL in a new medium. On day 18 the cells were diluted to 0.5 million/mL. From day 21 onwards, the cells were systematically returned to 1 million/mL on each maintenance day (i.e., twice per week).
Protocol 1: From day 0 to day 11 the cells are cultured in the basal medium. On day 11 the medium used is supplemented with 253.9 μM DMOG. […]
The cells are diluted to a tenth in trypan blue solution, allowing cell mortality to be assessed if necessary.

C[C@@H]1C[C@H]2[C@@H]3CCC4=CC(=O)C=C[C@]4(C)[C@@]3(F)[C@@H](O)C[C@]2(C)[C@@]1(O)C(=O)CO [Protocol 3, dexamethasone]
amplification of erythroid progenitors/CD34+ (CD34+ HTERT BMI1 BCL-XL) [1]: 5.76 · 10^5 | amplification of erythroid progenitors/CD34+ (CD34+ HTERT BMI1 LMO2) [2]: 5.12 · 10^6 | amplification of erythroid progenitors/CD34+ from cytapheresis on day 58 [3]: 2.47 · 10^7
